The values that follow come from ChEMBL document CHEMBL1156718, “Synthesis of novel aminoquinonoid analogues of diospyrin and evaluation of their inhibitory activity against murine and human cancer cells” (Eur J Med Chem, 2008).

Data set [1] has as its system Ehrlich. As to the kind of experiment: Induction of apoptosis in mouse Ehrlich ascites carcinoma cells assessed as intracellular ROS generation after 1 hr. The data set is classed as functional, cell-based.
The test system of data set [2] is PBMC. As to the kind of experiment: Cytotoxicity against human PBMC cells after 24 hrs by MTT assay. It is filed as cell-based. A general note: Formazan colour is commonly taken as a measure of viable cells.
In another data set the test system is HEp-2. As to the kind of experiment: Cytotoxicity against human Hep2 cells after 24 hrs by MTT assay. The data set is classed as functional, cell-based. The settings on record: HEp-2, 24 h.
In data set [3] the test system is Ehrlich. The data set can be described thus: Antitumor activity against mouse Ehrlich ascites carcinoma cells xenografted in Swiss A mouse assessed as increase in survival time at 1 mg/kg, ip administered five doses in alternate days. It is filed as functional. Details: unit not given here. The settings on record: route intraperitoneal.
Data set [4] deals with Ehrlich. The data set can be described thus: Cytotoxicity against mouse Ehrlich ascites carcinoma cells after 24 hrs by MTT assay. It is filed as functional, cell-based.
The test system of data set [5] is Mus musculus. The data set can be described thus: Effect on serum LDH activity in Swiss A mouse xenografted with mouse Ehrlich ascites carcinoma cells assessed as LDH unit at 1 mg/kg, ip administered five doses in alternate days measured after 16 days relative to control. It is filed as functional. Also on record: unit not given here. The settings on record: route intraperitoneal.

The subject of the next data set is A-375. As to the kind of experiment: Cytotoxicity against human A375 cells after 24 hrs by MTT assay. It is filed as functional, cell-based. The settings on record: A-375, 24 h.
For data set [6], the system named is Ehrlich. The data set can be described thus: Antitumor activity against mouse Ehrlich ascites carcinoma cells xenografted in Swiss A mouse assessed as inhibition of tumor growth at 1 mg/kg, ip administered five doses in alternate days measured after 16 days. It is filed as functional. The settings on record: route intraperitoneal. Details: unit not given here.

The test system of data set [7] is Ehrlich. The data set can be described thus: Antitumor activity against mouse Ehrlich ascites carcinoma cells xenografted in Swiss A mouse assessed as increase in life span at 1 mg/kg, ip administered five doses in alternate days relative to control. The data set is classed as functional. The settings on record: route intraperitoneal.
In data set [8] the test system is Mus musculus. As to the kind of experiment: Effect on alkaline phosphatase activity in Swiss A mouse xenografted with mouse Ehrlich ascites carcinoma cells assessed as umole of PNPP hydrolysed per minute per decilitre of serum at 1 mg/kg, ip administered five doses in alternate days measured after 16 days relative to control. The data set is classed as functional. Details: unit: umol/min/dL. The settings on record: route intraperitoneal.

The subject of data set [9] is PBMC. The data set can be described thus: Selectivity ratio of IC50 for human A375 cells to IC50 for human PBMC cells.
Data set [10] concerns Ehrlich. The data set can be described thus: Induction of apoptosis in mouse Ehrlich ascites carcinoma cells assessed as intracellular ROS generation at 0.4 uM after 1 hr by measuring increase in fluorescent intensity relative to control. It is filed as functional.
The test system of data set [11] is Ehrlich. As to the kind of experiment: Antitumor activity against mouse Ehrlich ascites carcinoma cells xenografted in Swiss A mouse assessed as restoration of lymphocyte infiltration and sinusoid dilation at 1 mg/kg, ip administered five doses in alternate days measured after 16 days by histopathological study relative to untreated control. The data set is classed as functional, organism-based. Details: dose 1 mg/kg.

A short description of data set [12]: Toxicity in single ip dosed Swiss A mouse. It is filed as organism-based. The settings on record: in vivo.
Data set [13] has as its system Ehrlich. The data set can be described thus: Induction of apoptosis in mouse Ehrlich ascites carcinoma cells assessed as intracellular ROS generation at 0.4 uM after 1 hr by measuring increase in fluorescent intensity relative to control in presence of N-acetyl L-cysteine. It is filed as functional, cell-based.
Data set [14] concerns PBMC. The data set can be described thus: Selectivity ratio of IC50 for human Hep2 cells to IC50 for human PBMC cells.
The subject of data set [15] is PBMC. The data set can be described thus: Selectivity ratio of IC50 for mouse Ehrlich ascites carcinoma to IC50 for human PBMC cells.
Data set [16] relates to Mus musculus. As to the kind of experiment: Toxicity in Swiss A mouse xenografted with mouse Ehrlich ascites carcinoma cells assessed as food and water intake at 1 mg/kg, ip administered five doses in alternate days measured after 16 days. It is filed as organism-based. Details: dose 1 mg/kg, route intraperitoneal. The settings on record: in vivo, 384 h.
The test system of the next data set is HL-60. As to the kind of experiment: Cytotoxicity against human HL60 cells by MTT assay. The data set is classed as functional, cell-based.
Another data set deals with K562. As to the kind of experiment: Cytotoxicity against human K562 cells by MTT assay. It is filed as functional, cell-based.
A further data set deals with MCF7. The data set can be described thus: Cytotoxicity against human MCF7 cells by MTT assay. The data set is classed as functional, cell-based.
For a further data set, the system named is A-431. The data set can be described thus: Cytotoxicity against human A431 cells by MTT assay. It is filed as functional, cell-based.

Active and inactive are the calls of the source. No cut-off for these calls is given here.

For the molecule `COc1cc(C)cc2c1C(=O)C=C(c1c(C)cc3c(c1OC)C(=O)C(N)=CC3=O)C2=O`, the Activity entry with Ehrlich [1] was “Dose-dependent effect”; in the data set on Ehrlich [3] it was 31.5; in the data set with Mus musculus [5] it was 34.7; in the data set with Ehrlich [6], 3.4; in the data set with Ehrlich [7] it was 72%; with Mus musculus [8], 4.4. Also, the IC50 – broadly, the concentration that inhibits the measured activity by half – in the data set with PBMC [2] is above 100 µM; in the data set with HEp-2, 3.51 µM; in the data set with Ehrlich [4] it was 0.35 µM; in the data set on A-375 it was 3.24 µM.

Turning to `COc1cc(C)cc2c1C(=O)C=C(c1c(C)cc3c(c1OC)C(=O)C(NCc1ccccc1)=CC3=O)C2=O`, the Activity result was “Dose-dependent effect” in the data set with Ehrlich [1]; 28.4 in the data set with Ehrlich [3]; 31.8 in the data set with Mus musculus [5]; 3 in the data set on Ehrlich [6]; 47% in the data set with Ehrlich [7]; 3.1 in the data set with Mus musculus [8]. Also, the IC50 in the data set on PBMC [2] is above 100 µM; with HEp-2, 2.61 µM; with Ehrlich [4], 1.41 µM; in the data set with A-375 it was 0.55 µM.

As for `COc1cc(C)cc2c1C(=O)C=C(c1c(C)cc3c(c1OC)C(=O)C(Nc1ccc4ccccc4c1)=CC3=O)C2=O`, the Activity result was “Dose-dependent effect” in the data set on Ehrlich [1]; 34 in the data set with Ehrlich [3]; 23.5 in the data set on Mus musculus [5]; 2.9 in the data set on Ehrlich [6]; 67% in the data set with Ehrlich [7]; 5.4 in the data set with Mus musculus [8]. Moreover, the IC50 worked out at 73.8 µM in the data set with PBMC [2], 2.04 µM in the data set with HEp-2, 0.24 µM in the data set with Ehrlich [4] and 0.08 µM in the data set on A-375.

`COc1cc(C)cc2c1C(=O)C=C(c1c(C)cc3c(c1OC)C(=O)C(NC(C)=O)=CC3=O)C2=O`: the Selectivity ratio with PBMC [9], in the data set on PBMC [14] and with PBMC [15] was 100 in each case. For the same molecule, the IC50 turned out to be 86.5 µM in the data set with PBMC [2], 0.92 µM in the data set on HEp-2, 0.06 µM with Ehrlich [4] and 0.06 µM with A-375. Moreover, the Activity in the data set with Ehrlich [10] is reported as 9; in the data set with Ehrlich [3], 35.7; with Mus musculus [5] it was 26.3; with Ehrlich [6] it was 3.3; with Ehrlich [7], 93%; in the data set with Mus musculus [16], “Non-toxic”. Also, the Activity in the data set with Mus musculus [8] worked out at 5.5. Further, in the data set on Ehrlich [11], the outcome was Active. In data set [12], the LD50 (commonly the dose expected to kill half of the subjects tested) is above 60 mg/kg. For the same molecule, in the data set with Ehrlich [13], the outcome was inactive.

With `Cc1cc(O)c2c(c1)C(=O)C(c1c(C)cc3c(c1O)C(=O)C=CC3=O)=CC2=O` [DIOSPYRIN], the IC50 is above 100 µM in the data set with HL-60, above 100 µM in the data set with K562, 74.8 µM in the data set on MCF7 and 65.3 µM in the data set on A-431. In addition, the Activity in the data set on Ehrlich [3] is 23.2; with Mus musculus [5], 16.3; with Ehrlich [6] it was 4.3; in the data set with Ehrlich [7], 36%; in the data set on Mus musculus [8] it was 3.7. The molecule further displayed an LD50 in data set [12] of 25 mg/kg.

Turning to `COc1cc(C)cc2c1C(=O)C(N)=C(c1c(C)cc3c(c1OC)C(=O)C(N)=CC3=O)C2=O`, the concentration for half-maximal inhibition (IC50) is 40.6 µM in the data set with PBMC [2], 2.34 µM in the data set with HEp-2, 0.37 µM in the data set on Ehrlich [4] and 1.93 µM in the data set with A-375. Moreover, the Activity in the data set with Ehrlich [3] came to 30; in the data set on Mus musculus [5], 37.5; in the data set on Ehrlich [6], 3.9; in the data set on Ehrlich [7] it was 62%; in the data set on Mus musculus [8], 4.9.

For `COc1cc(C)cc2c1C(=O)C=C(c1c(C)cc3c(c1OC)C(=O)C(Nc1ccc(Cl)cc1)=CC3=O)C2=O`, the Activity entry in the data set with Ehrlich [1] is “Dose-dependent effect”; with Ehrlich [3], 34.3; in the data set with Mus musculus [5], 25.5; in the data set with Ehrlich [6], 2.7; in the data set with Ehrlich [7] it was 69%; in the data set with Mus musculus [8], 6.4. Moreover, the IC50 in the data set on PBMC [2] is 44.9 µM; in the data set with HEp-2, 0.65 µM; in the data set with Ehrlich [4], 0.25 µM; in the data set with A-375 it was 0.63 µM.

As to `COc1cc(C)cc2c1C(=O)C=C(c1c(C)cc3c(c1OC)C(=O)C=CC3=O)C2=O`, the IC50 in the data set on HL-60 is 64.1 µM; in the data set on K562, above 100 µM; in the data set with MCF7 it was 46.4 µM; in the data set on A-431 it was 28.2 µM. Also, the Activity is listed as 29.8 in the data set with Ehrlich [3]; 25.5 in the data set on Mus musculus [5]; 2.9 in the data set with Ehrlich [6]; 57% in the data set with Ehrlich [7]; 4.9 in the data set with Mus musculus [8]. The molecule also displayed an LD50 in [12] of 45 mg/kg.

As to `CCOC(=O)CNC1=CC(=O)c2cc(C)c(C3=CC(=O)c4c(OC)cc(C)cc4C3=O)c(OC)c2C1=O`, the Activity result was “Dose-dependent effect” in the data set on Ehrlich [1]; 9 in the data set with Ehrlich [10]; 34.9 with Ehrlich [3]; 24.6 with Mus musculus [5]; 2.3 in the data set on Ehrlich [6]; 81% in the data set with Ehrlich [7]. In addition, the Activity with Mus musculus [8] was 5.9. In addition, the IC50 in the data set on PBMC [2] is 96.2 µM; in the data set with HEp-2, 0.86 µM; with Ehrlich [4], 0.09 µM; in the data set on A-375, 0.57 µM. Further, in the data set with Ehrlich [13], the outcome was inactive.

Consider `CCOc1cc(C)cc2c1C(=O)C=C(c1c(C)cc3c(c1OCC)C(=O)C=CC3=O)C2=O`, for which the IC50 was found to be 30.1 µM in the data set with HL-60, 40.2 µM with K562, 18.9 µM in the data set with MCF7 and 15.9 µM with A-431.
